Values belong to the compound of their own block, whether it stands above or below them.
Legend:
[1] = biological target: Tyrosine-protein kinase ABL1 (Homo sapiens, UniProt P00519, T315I); experiment: Selectivity interaction (Enzymatic assay) EUB0000178b ABL1
[2] = biological target: Aurora kinase B (Homo sapiens, UniProt Q96GD4); conditions: at 1 µM
[3] = biological target: Tyrosine-protein kinase Fer (Homo sapiens, UniProt P16591); conditions: at 1 µM
[4] = biological target: High affinity nerve growth factor receptor (Homo sapiens, UniProt P04629); conditions: at 1 µM
[5] = biological target: Mast/stem cell growth factor receptor Kit (Homo sapiens, UniProt P10721); conditions: at 1 µM
[6] = biological target: T1, Phosphatidylinositol 5-phosphate 4-kinase type-2 beta (Homo sapiens) (UniProt P78356); experiment: Selectivity interaction (KinomeScan (DiscoverX)) EUB0000698a PIP4K2B; conditions: at 10 µM
T1 sequence (whole entry): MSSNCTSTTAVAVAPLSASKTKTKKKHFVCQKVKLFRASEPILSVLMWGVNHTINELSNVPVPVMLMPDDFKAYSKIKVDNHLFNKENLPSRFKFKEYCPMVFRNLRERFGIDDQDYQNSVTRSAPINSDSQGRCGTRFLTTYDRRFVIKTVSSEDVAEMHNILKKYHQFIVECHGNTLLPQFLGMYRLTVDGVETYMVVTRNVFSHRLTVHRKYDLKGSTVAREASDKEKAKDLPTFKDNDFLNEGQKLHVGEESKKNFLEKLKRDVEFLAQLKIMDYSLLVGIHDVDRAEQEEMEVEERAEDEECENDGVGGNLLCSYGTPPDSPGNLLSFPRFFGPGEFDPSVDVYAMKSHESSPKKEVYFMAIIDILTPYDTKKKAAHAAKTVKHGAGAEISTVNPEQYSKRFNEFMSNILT

[7] = system: ALK tyrosine kinase receptor (Homo sapiens), Q9UM73 [C1156Y]; experiment: Selectivity interaction (KinomeScan (DiscoverX)) EUB0000169b ALK; conditions: at 1 µM
[8] = biological target: Dual specificity protein kinase TTK (Homo sapiens) (UniProt P33981); experiment: Selectivity interaction (KinomeScan (DiscoverX)) EUB0000138c TTK; conditions: at 100 nM
[9] = biological target: D(1A) dopamine receptor (Homo sapiens, UniProt P21728); experiment: Selectivity interaction (GPCR panel (PDSP screen)) EUB0000138c DRD1
[10] = biological target: T2, Mitogen-activated protein kinase kinase kinase 19 (Homo sapiens) (UniProt Q56UN5); experiment: Selectivity interaction (KinomeScan (DiscoverX)) EUB0000702a MAP3K19; conditions: at 1 µM
T2 sequence (whole entry): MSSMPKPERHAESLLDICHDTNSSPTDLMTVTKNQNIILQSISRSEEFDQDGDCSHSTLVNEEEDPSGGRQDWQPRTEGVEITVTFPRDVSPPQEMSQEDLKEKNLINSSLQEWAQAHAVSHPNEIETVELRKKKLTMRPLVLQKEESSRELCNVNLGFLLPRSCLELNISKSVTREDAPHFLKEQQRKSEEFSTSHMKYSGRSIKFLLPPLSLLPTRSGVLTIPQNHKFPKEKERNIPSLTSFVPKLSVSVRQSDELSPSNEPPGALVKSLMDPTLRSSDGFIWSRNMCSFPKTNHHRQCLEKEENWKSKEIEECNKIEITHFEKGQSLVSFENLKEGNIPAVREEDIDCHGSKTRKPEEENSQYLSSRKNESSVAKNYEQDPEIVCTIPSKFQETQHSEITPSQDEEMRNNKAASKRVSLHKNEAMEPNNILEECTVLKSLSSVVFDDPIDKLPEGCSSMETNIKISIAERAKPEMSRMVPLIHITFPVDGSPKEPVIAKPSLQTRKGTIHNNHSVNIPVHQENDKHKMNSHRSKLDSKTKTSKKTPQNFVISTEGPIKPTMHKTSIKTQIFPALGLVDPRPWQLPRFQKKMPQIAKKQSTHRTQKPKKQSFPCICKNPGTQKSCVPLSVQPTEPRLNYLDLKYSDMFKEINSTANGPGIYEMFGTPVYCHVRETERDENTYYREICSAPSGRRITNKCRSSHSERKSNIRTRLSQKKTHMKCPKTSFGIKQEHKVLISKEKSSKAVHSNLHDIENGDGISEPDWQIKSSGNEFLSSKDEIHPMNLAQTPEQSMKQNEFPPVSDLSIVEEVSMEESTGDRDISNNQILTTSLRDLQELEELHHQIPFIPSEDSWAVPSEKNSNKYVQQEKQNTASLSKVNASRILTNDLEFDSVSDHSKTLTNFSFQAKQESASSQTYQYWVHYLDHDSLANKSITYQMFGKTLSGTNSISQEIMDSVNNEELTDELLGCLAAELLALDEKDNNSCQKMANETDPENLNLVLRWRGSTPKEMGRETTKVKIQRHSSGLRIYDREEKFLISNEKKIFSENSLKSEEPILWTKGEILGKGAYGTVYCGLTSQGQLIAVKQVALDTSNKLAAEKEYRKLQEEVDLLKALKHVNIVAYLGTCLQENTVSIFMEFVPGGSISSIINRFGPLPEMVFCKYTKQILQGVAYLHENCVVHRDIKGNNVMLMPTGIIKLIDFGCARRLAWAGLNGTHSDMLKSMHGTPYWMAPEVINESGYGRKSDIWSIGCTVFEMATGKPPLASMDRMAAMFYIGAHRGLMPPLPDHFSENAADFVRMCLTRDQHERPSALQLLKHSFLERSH

[11] = biological target: Tyrosine-protein kinase JAK2 (Homo sapiens, UniProt O60674); experiment: Selectivity interaction (KinomeScan (DiscoverX)) EUB0000702a JAK2; conditions: at 1 µM
[12] = biological target: Tyrosine-protein kinase SYK (Homo sapiens, UniProt P43405); experiment: Selectivity interaction (KinomeScan (DiscoverX)) EUB0000305b SYK; conditions: CellTiter-Glo assay (Promega, proliferation in ACHN cells): IC50 = […] nM, https://www.sgc-ffm.uni-frankfurt.de/#!specificprobeove, at 100 nM
[13] = biological target: T3, Dual specificity mitogen-activated protein kinase kinase 5 (Homo sapiens) (UniProt Q13163); experiment: Selectivity interaction (KinomeScan (DiscoverX)) EUB0000305b MAP2K5; conditions: CellTiter-Glo assay (Promega, proliferation in ACHN cells): IC50 = […] nM, https://www.sgc-ffm.uni-frankfurt.de/#!specificprobeove, at 100 nM
T3 sequence (whole entry): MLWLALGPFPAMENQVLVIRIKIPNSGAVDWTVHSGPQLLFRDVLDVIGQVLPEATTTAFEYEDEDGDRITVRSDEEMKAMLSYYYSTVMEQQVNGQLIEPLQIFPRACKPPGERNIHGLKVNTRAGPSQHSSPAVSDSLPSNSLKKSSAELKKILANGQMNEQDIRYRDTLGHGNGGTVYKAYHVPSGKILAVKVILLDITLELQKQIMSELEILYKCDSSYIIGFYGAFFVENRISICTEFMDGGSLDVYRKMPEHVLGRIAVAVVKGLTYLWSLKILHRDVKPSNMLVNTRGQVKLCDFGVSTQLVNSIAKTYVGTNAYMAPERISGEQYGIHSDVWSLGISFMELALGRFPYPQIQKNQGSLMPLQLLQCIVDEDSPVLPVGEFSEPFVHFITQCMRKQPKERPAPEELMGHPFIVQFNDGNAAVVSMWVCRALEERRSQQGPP

Sequence of Tyrosine-protein kinase JAK2 (O60674 whole entry): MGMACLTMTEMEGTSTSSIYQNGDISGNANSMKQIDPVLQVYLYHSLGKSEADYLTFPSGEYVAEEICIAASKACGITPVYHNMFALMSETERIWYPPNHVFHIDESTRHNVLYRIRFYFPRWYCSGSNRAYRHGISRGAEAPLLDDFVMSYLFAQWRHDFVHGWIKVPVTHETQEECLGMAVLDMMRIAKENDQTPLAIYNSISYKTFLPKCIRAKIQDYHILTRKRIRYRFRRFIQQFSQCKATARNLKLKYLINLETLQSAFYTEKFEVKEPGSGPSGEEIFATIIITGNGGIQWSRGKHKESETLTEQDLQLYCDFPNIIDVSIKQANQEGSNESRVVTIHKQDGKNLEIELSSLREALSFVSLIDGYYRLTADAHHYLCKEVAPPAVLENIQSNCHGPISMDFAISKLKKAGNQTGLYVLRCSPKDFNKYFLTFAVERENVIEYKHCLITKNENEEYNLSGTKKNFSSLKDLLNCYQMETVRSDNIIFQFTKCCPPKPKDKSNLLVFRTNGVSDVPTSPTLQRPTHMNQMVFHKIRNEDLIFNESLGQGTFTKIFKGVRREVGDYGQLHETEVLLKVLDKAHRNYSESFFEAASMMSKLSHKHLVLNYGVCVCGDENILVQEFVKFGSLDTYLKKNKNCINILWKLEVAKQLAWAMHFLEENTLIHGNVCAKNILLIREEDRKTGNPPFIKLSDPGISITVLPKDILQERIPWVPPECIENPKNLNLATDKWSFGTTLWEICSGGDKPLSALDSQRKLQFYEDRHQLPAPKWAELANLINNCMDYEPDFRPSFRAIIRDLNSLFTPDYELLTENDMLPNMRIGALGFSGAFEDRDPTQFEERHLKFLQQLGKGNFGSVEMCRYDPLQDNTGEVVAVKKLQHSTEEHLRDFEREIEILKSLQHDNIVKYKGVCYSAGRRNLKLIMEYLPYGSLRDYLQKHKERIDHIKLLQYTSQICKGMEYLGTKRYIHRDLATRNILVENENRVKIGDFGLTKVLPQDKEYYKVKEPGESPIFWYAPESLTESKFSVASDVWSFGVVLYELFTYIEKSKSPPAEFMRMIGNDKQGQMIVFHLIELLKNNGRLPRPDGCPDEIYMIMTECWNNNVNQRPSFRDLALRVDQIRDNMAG
Sequence of Dual specificity protein kinase TTK (Homo sapiens) (P33981 whole entry): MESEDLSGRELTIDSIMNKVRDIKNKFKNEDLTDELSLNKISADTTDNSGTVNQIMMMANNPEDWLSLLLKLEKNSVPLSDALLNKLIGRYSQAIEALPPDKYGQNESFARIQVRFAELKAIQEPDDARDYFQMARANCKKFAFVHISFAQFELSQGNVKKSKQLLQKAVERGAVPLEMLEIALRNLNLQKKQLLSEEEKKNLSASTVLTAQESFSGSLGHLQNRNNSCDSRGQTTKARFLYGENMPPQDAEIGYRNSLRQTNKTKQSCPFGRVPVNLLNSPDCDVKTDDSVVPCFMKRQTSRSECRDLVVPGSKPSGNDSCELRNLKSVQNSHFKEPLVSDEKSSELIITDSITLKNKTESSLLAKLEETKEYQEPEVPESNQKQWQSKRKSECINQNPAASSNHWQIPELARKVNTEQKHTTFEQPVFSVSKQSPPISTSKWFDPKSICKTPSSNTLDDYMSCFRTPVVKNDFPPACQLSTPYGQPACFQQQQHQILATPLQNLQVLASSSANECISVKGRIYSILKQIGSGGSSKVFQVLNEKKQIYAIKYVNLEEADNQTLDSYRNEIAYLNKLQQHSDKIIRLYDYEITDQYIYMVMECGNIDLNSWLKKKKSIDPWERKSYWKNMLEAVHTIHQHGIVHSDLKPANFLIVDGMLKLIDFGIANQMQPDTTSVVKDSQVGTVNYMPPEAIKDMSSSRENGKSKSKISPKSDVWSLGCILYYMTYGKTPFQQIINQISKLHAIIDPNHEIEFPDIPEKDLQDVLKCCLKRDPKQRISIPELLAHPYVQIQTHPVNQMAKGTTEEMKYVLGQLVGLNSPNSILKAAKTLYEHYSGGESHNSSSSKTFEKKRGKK
Sequence of Tyrosine-protein kinase Fer (P16591 whole entry, looked up): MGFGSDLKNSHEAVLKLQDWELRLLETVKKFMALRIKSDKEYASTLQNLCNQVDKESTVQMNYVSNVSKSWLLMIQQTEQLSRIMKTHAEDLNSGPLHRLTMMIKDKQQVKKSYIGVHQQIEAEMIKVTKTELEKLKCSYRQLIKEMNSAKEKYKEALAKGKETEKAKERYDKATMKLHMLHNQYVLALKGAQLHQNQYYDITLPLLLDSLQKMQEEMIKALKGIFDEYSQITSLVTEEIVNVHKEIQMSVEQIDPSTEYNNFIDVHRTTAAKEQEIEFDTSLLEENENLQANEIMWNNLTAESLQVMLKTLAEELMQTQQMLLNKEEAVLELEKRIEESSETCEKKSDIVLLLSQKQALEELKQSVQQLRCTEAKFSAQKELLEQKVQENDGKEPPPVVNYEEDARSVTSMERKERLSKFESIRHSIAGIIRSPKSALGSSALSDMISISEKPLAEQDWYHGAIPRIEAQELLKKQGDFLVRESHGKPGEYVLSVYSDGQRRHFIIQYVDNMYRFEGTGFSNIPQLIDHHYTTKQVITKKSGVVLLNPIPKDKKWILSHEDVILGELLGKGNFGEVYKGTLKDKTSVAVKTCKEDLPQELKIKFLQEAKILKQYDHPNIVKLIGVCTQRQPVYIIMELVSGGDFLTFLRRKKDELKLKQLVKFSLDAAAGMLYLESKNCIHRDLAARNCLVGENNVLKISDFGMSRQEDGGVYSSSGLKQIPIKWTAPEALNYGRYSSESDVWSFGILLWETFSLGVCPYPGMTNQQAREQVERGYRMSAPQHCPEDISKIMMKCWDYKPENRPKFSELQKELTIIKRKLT
Sequence of D(1A) dopamine receptor (P21728 whole entry): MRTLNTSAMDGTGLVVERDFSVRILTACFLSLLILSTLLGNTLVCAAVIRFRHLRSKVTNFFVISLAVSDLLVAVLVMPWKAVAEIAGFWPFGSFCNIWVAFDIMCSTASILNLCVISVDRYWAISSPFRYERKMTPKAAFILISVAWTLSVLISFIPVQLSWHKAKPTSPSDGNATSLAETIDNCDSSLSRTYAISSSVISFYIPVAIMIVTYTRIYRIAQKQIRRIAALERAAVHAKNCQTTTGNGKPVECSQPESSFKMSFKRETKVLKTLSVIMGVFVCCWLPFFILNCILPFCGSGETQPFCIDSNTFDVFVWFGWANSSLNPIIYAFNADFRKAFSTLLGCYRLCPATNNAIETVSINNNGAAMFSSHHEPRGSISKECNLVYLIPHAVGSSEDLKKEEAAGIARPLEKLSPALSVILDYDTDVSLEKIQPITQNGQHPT
Sequence of ALK tyrosine kinase receptor (Homo sapiens), Q9UM73 [C1156Y] (Q9UM73 whole entry C1156Y, looked up): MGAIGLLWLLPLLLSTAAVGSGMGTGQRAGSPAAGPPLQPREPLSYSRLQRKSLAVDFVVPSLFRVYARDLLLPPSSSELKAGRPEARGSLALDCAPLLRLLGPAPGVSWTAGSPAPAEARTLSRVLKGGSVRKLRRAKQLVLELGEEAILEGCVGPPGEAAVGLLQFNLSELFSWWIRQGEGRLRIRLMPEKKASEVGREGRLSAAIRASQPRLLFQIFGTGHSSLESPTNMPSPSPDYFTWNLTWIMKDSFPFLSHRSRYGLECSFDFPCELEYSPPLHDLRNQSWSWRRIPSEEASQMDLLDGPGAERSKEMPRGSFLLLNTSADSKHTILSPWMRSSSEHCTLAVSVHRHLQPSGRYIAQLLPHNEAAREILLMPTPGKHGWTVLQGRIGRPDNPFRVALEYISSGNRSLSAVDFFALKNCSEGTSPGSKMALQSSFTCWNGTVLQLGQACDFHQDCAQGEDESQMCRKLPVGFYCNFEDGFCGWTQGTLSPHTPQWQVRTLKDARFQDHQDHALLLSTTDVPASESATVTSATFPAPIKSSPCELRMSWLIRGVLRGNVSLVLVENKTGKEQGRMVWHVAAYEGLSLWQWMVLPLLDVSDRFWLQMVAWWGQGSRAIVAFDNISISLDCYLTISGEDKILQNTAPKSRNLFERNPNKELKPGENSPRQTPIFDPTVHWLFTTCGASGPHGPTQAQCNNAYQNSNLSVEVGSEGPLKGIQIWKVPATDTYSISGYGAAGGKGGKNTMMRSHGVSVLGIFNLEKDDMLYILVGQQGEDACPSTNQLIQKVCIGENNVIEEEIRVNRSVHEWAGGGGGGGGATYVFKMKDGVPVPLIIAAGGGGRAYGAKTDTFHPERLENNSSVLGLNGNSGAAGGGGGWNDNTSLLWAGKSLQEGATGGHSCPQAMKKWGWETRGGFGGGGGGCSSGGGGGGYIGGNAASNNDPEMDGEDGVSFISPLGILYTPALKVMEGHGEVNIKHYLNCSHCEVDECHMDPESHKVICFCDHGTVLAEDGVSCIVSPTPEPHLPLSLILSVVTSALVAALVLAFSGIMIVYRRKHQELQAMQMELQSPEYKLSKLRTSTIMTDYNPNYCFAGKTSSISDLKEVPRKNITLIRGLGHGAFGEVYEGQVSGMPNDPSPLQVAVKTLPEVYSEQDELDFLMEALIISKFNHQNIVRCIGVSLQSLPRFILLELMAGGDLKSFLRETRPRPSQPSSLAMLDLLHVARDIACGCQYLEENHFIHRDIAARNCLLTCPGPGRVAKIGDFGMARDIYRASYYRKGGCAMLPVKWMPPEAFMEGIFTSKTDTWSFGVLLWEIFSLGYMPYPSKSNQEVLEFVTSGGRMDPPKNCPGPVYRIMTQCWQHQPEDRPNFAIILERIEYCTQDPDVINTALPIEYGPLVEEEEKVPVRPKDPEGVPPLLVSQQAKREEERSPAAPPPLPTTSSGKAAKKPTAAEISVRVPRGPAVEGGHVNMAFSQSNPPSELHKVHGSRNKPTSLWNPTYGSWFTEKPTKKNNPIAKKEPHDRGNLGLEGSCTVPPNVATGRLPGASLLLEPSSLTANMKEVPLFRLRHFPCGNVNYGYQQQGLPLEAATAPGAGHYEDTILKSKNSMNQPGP

- IC50 [1]: 16.6 nM
Structure (SMILES): CN1C(=O)c2sccc2N(C)c2nc(Nc3ccc(S(N)(=O)=O)cc3)ncc21

Structure (SMILES): CCOc1cn(-c2ccc(F)cc2C)nc1C(=O)Nc1ccc(Oc2ccnc3cc(OC)c(OC)cc23)c(F)c1
- % of control [2]: < 10%
- % of control [3]: < 10%
- % of control [4]: < 10%
- % of control [5]: < 10%

- % of control [6]: 6.6%
Structure (SMILES): COc1cc2ncn(-c3cc(OCc4ccccc4C(F)(F)F)c(C(N)=O)s3)c2cc1OC [GW843682X]

- % of control [7]: 0.3%
Structure (SMILES): CC[C@@H]1C(=O)N(C)c2cnc(Nc3ccc(C(=O)NC4CCN(C)CC4)cc3OC)nc2N1C1CCCC1

- % of control [8]: 8.3%
- Ki [9]: > 10000 nM
Structure (SMILES): CNC(=O)c1ccc(Nc2ncc(C(F)(F)F)c(NCc3nccnc3N(C)S(C)(=O)=O)n2)cc1 [DEFACTINIB]

- % of control [10]: 0.4%
- % of control [11]: 3.8%
Structure (SMILES): CN(c1ccnc(CNc2nc(Nc3ccc4c(c3)CC(=O)N4)ncc2C(F)(F)F)n1)S(C)(=O)=O [PF-00911705]

- % of control [12]: 31%
- % of control [13]: 8.5%
Structure (SMILES): C[C@H](c1ccnc(Nc2nc3ccc(-c4cc(N(C)C)ncn4)cc3[nH]2)c1)N1CCN(C(=O)CC(F)(F)F)CC1 [BAY-985]
